Assays:
[1] = test system: hEpo expression in C2C12 mouse myoblast cell line; test: hEpo expression (ELISA of supernatant) in C2C12 myoblasts transfected with stop-codon-mutated hEpo constructs, with or without aminoglycoside; type: cell-based; details: for induction of hEpo expression compared to cells not given aminoglycoside: 0.2 mg/ml aminoglycoside, stop-codon-mutated hEpo constructs in C2C12 cells; for read-through of the stop codon mutation: in vitro, C2C12 cells
Protocol: In this example, three different mutated human Epo genes (prepared as described in Example 1) were individually transfected into myoblasts and expression of the genes was subsequently regulated by application of two different aminoglycosides.
The C2C12 mouse myoblast cell line (ATCC) was maintained in DMEM, 10% fetal bovine serum, 1% penicillin/streptomycin and 1% glutamine.
C2C 12 cells were plated at […] on the afternoon before transfection. 15 μg of wildtype or mutated hEpo plasmid DNA was mixed with 50 μl of Lipofectamine (Gibco) and 2 mls of Opti-MEM (Gibco) and incubated at room temperature for 15 minutes for DNA/liposome complexes to form. Cells were washed twice with 5 mils of Opti-MEM. Two ml of Opti-MEM and the DNA/liposome complexes were added and incubated at 37° C. in 5% CO2 for 5 hours. Eight ml of growth medium (DMEM+10% FBS) was added to cells and incubated overnight at 37° C.
The following day, 10 mls of fresh growth medium was added to the cells with or without 0.2 mg/ml of one of two aminoglycosides: G418 (Sigma) or gentamycin sulfate (Sigma). Cells were allowed to incubate for an additional 72 hours and a sample of the supernatant was taken for transgene analysis at 24, 48, and 72 hours.
Supernatants from transfected cells were analyzed for hEpo expression using the Quantikine IV human Epo ELISA kit (R&D Systems). Samples were diluted within the linear range of the assay using specimen diluent and assayed using a microplate reader (Molecular Devices) at 450 nm.
In this example, a series of additional mutated human Epo constructs were prepared, into which stop codon mutations were introduced at different codon positions from those described in Example 1. These constructs were introduced into C2C12 mouse myoblasts as described in Example 2 and the inducibility of hEpo activity from these constructs using either gentamycin sulfate (GS) or G418 was examined as described in Example 2. The constructs were prepared by standard PCR mutagenesis, as described in Example 1, and introduced a stop codon mutation into the human Epo sequence at either nucleotide position 307 (pVR1012hEpo.307), position 434 (pVR1012hEpo.434), position 208 (pVR1012hEpo.208), position 214 (pVR1012hEpo.214) or position 199 (pVR1012hEpo. 199).
Data for constructs with mutations at either nucleotide position 437 (pVR1012hEpo.437), position 454 (pVR1012hEpo.454) or position 526 (pVR1012hEpo.526), prepared as described in Example 1, are included for comparison purposes.

[2] = test system: naturally-occurring premature stop codon mutations in the dystrophin gene; details: mice; cited from earlier work

| Molecule | induction of hEpo expression compared to cells not given aminoglycoside [1] | read-through of the stop codon mutation [1] | effective dosage [2] |
| --- | --- | --- | --- |
| gentamycin sulfate | 6-8 fold | 3% | 17 mg/kg |
| CN[C@@H]1[C@@H](O)[C@@H](O[C@@H]2[C@@H](O)[C@H](O[C@H]3O[C@H]([C@@H](C)O)[C@@H](O)[C@H](O)[C@H]3N)[C@@H](N)C[C@H]2N)OC[C@]1(C)O [G418] | 20-50 fold | 10% |  |
